Measurements: publication PMC2794843, “Differential regulation of muscarinic M1 receptors by orthosteric and allosteric ligands” (BMC Pharmacology, 2009)

Legend:
[1] = biological target: T1, human muscarinic M1 receptor (hM1) (Homo sapiens, UniProt P11229); assay: PI hydrolysis, CHO-M1 cells; type: cell-based; conditions: partial agonist; 60 min, 37°C, 10 mM LiCl; allosteric component
T1 construct: gene CHRM1; full-length hM1
T1 sequence (P11229 1-460): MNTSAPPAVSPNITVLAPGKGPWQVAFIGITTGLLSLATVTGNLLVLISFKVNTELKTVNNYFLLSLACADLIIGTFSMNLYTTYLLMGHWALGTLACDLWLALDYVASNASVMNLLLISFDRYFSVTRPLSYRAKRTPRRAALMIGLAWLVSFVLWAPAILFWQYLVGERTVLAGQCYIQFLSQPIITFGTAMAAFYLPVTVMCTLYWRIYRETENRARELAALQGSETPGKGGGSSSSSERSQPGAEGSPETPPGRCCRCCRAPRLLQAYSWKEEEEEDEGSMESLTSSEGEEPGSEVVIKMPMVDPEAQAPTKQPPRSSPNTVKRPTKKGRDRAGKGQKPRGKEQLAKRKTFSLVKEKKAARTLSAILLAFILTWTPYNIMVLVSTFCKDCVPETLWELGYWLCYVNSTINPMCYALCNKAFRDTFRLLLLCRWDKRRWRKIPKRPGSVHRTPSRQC
Excerpt: PI hydrolysis, CHO-M1 cells on human muscarinic M1 receptor (hM1)

[2] = biological target: T1, human muscarinic M1 receptor (hM1); assay: R-SAT, transiently transfected NIH-3T3 cells; type: cell-based; conditions: for pEC50: agonist
Excerpt: R-SAT, transiently transfected NIH-3T3 cells on human muscarinic M1 receptor (hM1)

SMILES	pEC50 [2]	further results
Clc1ccc2c(c1)N=C(N1CCNCC1)c1ccccc1N2 [NDMC]	–	PI Hydrolysis / pEC50 [1]: 7.1 ± 0.4
CCCCC1CCN(CCCN2C(=O)COc3cc(F)ccc32)CC1 [AC-260977, (R)-4-[3-(4-butylpiperidin-1-yl)propyl]-7-fluoro-2H-benzo[b][1, 4]oxazin-3-one]	7.7 ± 0.1	–
O=C1COc2cc(F)ccc2N1CCCN1CCC(OCC2CC2)CC1 [AC-262469, 4-[3-(4-cyclopropylmethyloxypiperidin-1-yl)propyl]-7-fluoro-2H-benzo[b][1, 4]oxazin-3-one]	7.2 ± 0	–
CCCCC1CCN(CCCN2C(=O)COc3cc(Cl)ccc32)CC1 [AC-260515, 4-[3-(4-butyl-piperidin-1-yl)-propyl]-7-chloro-2H-benzo[b][1, 4]oxazin-3-one]	–	EC50 [2]: 251 nM
